Patent US20250340561A1, “QUINAZOLINE COMPOUND FOR INDUCING DEGRADATION OF G12D MUTANT KRAS PROTEIN” (Astellas Pharma Inc., priority 2021, published 2025)

Biological target: T1, KRAS G12D (Homo sapiens, UniProt P01116, G12D)
T1 construct: host or cells: AsPC-1 human pancreatic cancer cells
Test: Test Example 1-2: KRAS degradation action in AsPC-1, Cell ELISA
Type: cell-based
Conditions: AsPC-1 cells, overnight treatment, corrected with β-actin, 0% = 10 μM Example No. 26 (Example No. 8 for Example Nos. 74 and 75)
Procedure: Test Example 1-2: Evaluation of KRAS Degradation Action on Human G12D Mutant KRAS-Positive Pancreatic Cancer Line AsPC-1
The KRAS degradation action of test compounds was evaluated by measuring the expression levels of KRAS G12D by Cell ELISA.
[…] As for the cell culture conditions, a RPMI 1640 medium containing 10% fetal bovine serum was used in the presence of 5% CO2 at 37° C. The next day, the test compounds (10 points having final concentrations in the range of 10 μM to 0.3 nM), the compound of Example No. 26 (Example No. 8 for Example Nos. 74 and 75) of a final concentration of 10 μM as a positive control and DMSO, which was the solvent for the test compounds, as a negative control were diluted 500-fold with a fresh medium and were added at 20 μL per well. The cells were cultured overnight.
The next day, the culture supernatant was removed, and 4% paraformaldehyde phosphate buffer (from FUJIFILM Wako Pure Chemical Corporation) was added at 20 μL per well. The plate was allowed to stand for 30 minutes at room temperature to thus immobilize the cells. Then, the supernatant was removed, and 0.1% Triton X-100 (from Amersham Biosciences)-containing PBS was added at 20 μL per well. After allowing to stand for 10 minutes at room temperature, the supernatant was removed. PBS was added at 25 μL per well, and the supernatant was removed to thus wash each well. The washing was performed twice in total. Next, the supernatant was removed, and 0.5% sodium dodecyl sulfate (SDS; from Invitrogen)-containing PBS was added at 20 μL per well. After allowing to stand at room temperature for 10 minutes, the supernatant was removed by centrifugation (using a centrifugal dehydrator machine, the supernatant was removed by the same method hereinafter). PBS was added at 25 μL per well, and the supernatant was removed to thus wash each well. The washing was performed twice in total. The supernatant was removed by centrifugation, and a blocking solution (Intercept Blocking Buffer) was added at 20 μL per well. After allowing to stand for 30 minutes at room temperature, the supernatant was removed by centrifugation, and a solution obtained by diluting an anti-Ras (G12D Mutant Specific) antibody and an anti-3-actin antibody 1,000-fold with a blocking solution was added at 20 μL per well as a primary antibody. The plate was allowed to stand overnight at 4° C.
The next day, the plate was centrifuged to remove the supernatant. PBS was added at […], and the supernatant was removed to thus wash each well. The washing was performed twice in total. The supernatant was removed by centrifugation, and a solution obtained by diluting Donkey anti-Mouse IgG H&L (TRDye 680RD) (from Li—COR Biosciences) and Goat anti-Rabbit IgG H&L (IRDye 800CW) (from Li—COR Biosciences) 1,000-fold with a blocking solution was added at 20 μL per well as a secondary antibody. After allowing to stand for 1 hour at room temperature, the supernatant was removed. PBS was added at 25 μL per well, and the supernatant was removed to thus wash each well. The washing was performed twice in total. After removing the supernatant by centrifuging the plate, the plate was dried as it was with air at room temperature for 2 hours or more, and the 700-nm and 800-nm fluorescent signals were measured with Aerius (from LI-COR Biosciences).
With the signaling value at the time of addition of DMSO corrected with the signaling value of β-actin taken as 100% and with the signaling value at the time of addition of 10 μM of the compound of Example No. 26 taken as 0%, the 50% degradation values (DC50) of the amounts of KRAS were calculated by Sigmoid-Emax model nonlinear regression analysis. The molecular weights of the test compounds were calculated as the molecular weights of the trihydrochloride for Example No. 30, the tetrahydrochloride for Example No. 46 and the free forms forming no salt for the remaining Example Nos. The results for some test compounds of the formula (I) are shown in Table 2.

T1 sequence (P01116 1-188 isoform P01116-2 G12D): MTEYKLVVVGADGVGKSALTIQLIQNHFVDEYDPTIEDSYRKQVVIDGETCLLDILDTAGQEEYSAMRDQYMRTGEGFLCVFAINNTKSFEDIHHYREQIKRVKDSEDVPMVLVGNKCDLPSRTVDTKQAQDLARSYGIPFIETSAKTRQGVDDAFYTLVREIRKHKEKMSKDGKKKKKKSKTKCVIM

SMILES | DC50
Cc1ncsc1-c1ccc([C@H](CO)NC(=O)[C@@H]2C[C@@H](O)CN2C(=O)[C@@H](NC(=O)CCN(C)C(=O)c2ccc(COc3c(-c4c(C)c(F)cc5[nH]ncc45)c(C4CC4)cc4c(N5C[C@@H]6C[C@H]5CN6)nc(OC5CCOCC5)nc34)cc2)C(C)C)cc1 [Example 74] | 1 µM
Cc1ncsc1-c1ccc([C@H](CO)NC(=O)[C@@H]2C[C@@H](O)CN2C(=O)[C@@H](NC(=O)C[C@@H]2CCN(C(=O)c3ccc(COc4c(-c5c(C)c(F)cc6[nH]ncc56)c(C5CC5)cc5c(N6C[C@@H]7C[C@H]6CN7)nc(OC6CCOCC6)nc45)cc3)C2)C(C)C)cc1 [Example 75] | 5.89 µM
